Consider six compounds from ChEMBL document CHEMBL1155822, “Inhibition of acetylcholinesterase, beta-amyloid aggregation, and NMDA receptors in Alzheimer's disease: a promising direction for the multi-target-directed ligands gold rush” (J Med Chem, 2008).

One test relates to SH-SY5Y. Kind of test: Antioxidant activity against tert-butyl hydroperoxide-induced ROS evoked cell death in human SH-SY5Y cells. The test is classed as functional, cell-based.
For the next test, the target named is Cholinesterase (Homo sapiens, UniProt P06276). Kind of test: Inhibition of human serum BChE by Ellman's method. A general note: DTNB colorimetry detects thiols as they appear.
Cholinesterase, sequence (P06276 whole entry): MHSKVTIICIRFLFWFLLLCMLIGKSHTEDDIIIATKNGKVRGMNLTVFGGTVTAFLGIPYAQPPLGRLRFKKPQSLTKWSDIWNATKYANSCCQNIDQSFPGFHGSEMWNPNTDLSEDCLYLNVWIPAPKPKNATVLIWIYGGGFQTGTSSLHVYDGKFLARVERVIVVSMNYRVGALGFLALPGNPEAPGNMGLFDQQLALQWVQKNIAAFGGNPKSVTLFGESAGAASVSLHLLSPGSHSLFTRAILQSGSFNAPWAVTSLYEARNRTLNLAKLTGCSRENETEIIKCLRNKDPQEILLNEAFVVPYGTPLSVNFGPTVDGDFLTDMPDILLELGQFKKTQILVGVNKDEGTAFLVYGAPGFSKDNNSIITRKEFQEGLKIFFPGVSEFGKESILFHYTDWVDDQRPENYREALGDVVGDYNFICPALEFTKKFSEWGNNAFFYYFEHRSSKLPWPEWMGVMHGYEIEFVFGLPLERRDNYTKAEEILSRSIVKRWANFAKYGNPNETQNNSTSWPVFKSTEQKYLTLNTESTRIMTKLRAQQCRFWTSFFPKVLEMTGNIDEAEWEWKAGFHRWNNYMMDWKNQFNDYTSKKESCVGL
A further test deals with Acetylcholinesterase (Homo sapiens, UniProt P22303).
Acetylcholinesterase, sequence (P22303 whole entry): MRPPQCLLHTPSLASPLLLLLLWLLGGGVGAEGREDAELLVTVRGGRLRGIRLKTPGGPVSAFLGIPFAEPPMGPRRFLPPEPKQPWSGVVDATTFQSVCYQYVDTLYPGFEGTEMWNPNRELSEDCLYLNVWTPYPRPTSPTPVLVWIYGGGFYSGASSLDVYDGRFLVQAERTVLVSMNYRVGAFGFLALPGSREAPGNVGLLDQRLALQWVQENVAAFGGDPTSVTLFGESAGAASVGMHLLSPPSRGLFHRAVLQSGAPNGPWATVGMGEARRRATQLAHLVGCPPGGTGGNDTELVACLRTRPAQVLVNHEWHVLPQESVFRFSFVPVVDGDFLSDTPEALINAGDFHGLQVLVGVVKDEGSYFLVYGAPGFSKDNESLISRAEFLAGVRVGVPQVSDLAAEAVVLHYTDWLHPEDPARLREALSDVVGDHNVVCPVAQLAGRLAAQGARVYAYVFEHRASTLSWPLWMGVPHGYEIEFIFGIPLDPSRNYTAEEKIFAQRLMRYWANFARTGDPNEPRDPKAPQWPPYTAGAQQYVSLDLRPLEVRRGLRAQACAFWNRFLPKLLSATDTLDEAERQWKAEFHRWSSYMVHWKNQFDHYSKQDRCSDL
The target in test [1] is Glutamate NMDA receptor; GRIN1/GRIN2B (Homo sapiens, UniProt Q05586+Q13224).
Glutamate NMDA receptor; GRIN1/GRIN2B, sequence (Q13224 whole entry, other chains not shown): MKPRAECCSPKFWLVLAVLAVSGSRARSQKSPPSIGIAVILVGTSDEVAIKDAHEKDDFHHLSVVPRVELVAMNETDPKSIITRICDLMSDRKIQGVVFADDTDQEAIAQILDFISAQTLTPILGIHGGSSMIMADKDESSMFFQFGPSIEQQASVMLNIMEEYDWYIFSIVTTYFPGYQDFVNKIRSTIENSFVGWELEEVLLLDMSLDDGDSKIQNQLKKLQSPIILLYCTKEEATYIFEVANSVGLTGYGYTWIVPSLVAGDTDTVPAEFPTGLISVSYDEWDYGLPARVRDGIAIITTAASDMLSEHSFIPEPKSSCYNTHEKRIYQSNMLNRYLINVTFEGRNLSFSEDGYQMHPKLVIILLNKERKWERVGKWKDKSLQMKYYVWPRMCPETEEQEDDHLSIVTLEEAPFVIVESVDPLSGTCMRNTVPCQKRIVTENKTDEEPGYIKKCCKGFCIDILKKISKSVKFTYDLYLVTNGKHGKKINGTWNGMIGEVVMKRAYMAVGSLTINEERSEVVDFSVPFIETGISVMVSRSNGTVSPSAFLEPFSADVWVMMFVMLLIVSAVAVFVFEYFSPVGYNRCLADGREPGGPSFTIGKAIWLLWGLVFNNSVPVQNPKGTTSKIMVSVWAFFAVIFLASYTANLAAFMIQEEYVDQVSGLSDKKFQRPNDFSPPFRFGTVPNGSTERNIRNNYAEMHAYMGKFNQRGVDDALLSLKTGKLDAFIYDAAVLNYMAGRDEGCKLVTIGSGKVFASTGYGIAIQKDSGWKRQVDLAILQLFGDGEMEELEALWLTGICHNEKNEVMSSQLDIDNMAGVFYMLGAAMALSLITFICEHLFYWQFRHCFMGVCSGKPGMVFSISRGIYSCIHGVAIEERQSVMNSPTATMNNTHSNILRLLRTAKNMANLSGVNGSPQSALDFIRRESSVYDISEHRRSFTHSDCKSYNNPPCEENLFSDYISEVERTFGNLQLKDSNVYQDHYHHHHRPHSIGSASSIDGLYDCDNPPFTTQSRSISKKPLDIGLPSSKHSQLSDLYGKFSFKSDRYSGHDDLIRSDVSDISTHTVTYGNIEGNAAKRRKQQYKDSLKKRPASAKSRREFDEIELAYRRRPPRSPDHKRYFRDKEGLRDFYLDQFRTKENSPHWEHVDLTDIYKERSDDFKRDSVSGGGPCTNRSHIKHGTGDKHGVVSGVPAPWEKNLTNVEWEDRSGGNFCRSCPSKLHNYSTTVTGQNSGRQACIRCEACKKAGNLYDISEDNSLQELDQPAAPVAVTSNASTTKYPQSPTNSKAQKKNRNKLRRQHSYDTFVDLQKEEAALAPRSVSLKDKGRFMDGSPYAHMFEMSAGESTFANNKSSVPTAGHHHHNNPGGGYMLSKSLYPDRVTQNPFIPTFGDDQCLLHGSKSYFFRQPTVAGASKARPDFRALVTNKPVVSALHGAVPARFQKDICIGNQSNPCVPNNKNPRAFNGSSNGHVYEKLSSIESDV
Description: Inhibition of NMDA NR1/NR2B receptor expressed in xenopus oocytes assessed as inhibition of NMDA and glycine-induced current response by two-electrode voltage clamp assay

As usually defined, the IC50 is the concentration that gives 50% inhibition. A lower IC50 goes with greater potency in that assay.

Description for Acetylcholinesterase: Inhibition of human recombinant AChE by Ellman's method

As to `Oc1cccc2[nH]c3ccccc3c12`, the IC50 in the test on SH-SY5Y was 70 nM.
For the compound `Clc1ccc2c(NCCCNCCCCCOc3cccc4[nH]c5ccccc5c34)c3c(nc2c1)CCCC3`, the IC50 against Cholinesterase was 189 nM; against Acetylcholinesterase, 1.54 nM; in test [1], 18200 nM.
For `Clc1ccc2c(NCCCNCCCCCCOc3cccc4[nH]c5ccccc5c34)c3c(nc2c1)CCCC3`, the IC50 worked out at 137 nM against Cholinesterase, 2.57 nM on Acetylcholinesterase and 13000 nM in test [1].
On the same counts, the results for `Clc1ccc2c(NCCCNCCCCOc3cccc4[nH]c5ccccc5c34)c3c(nc2c1)CCCC3` are 211 nM, 1.65 nM and 30300 nM.
On to `Clc1ccc2c(NCCCNCCCOc3cccc4[nH]c5ccccc5c34)c3c(nc2c1)CCCC3` [CARBACRINE], for which the IC50 stood at 296 nM against Cholinesterase, 2.15 nM against Acetylcholinesterase, 23000 nM with SH-SY5Y and 740 nM in test [1].
With `Cc1c(C)c2c(c(C)c1O)CCC(C)(C(=O)O)O2` (stereo not given) [TROLOX], the half-inhibitory concentration (IC50) with SH-SY5Y was 49600 nM.
